Assay: excess molar enthalpy (molar enthalpy of mixing); xn = mol fraction of the nth substance listed
Conditions: 308.15 K, 12400 kPa, Fluid (supercritical or subcritical phases)

CCCCCC [hexane] + CO
Conditions	excess molar enthalpy [kcal/mol]
x2 = 0.032	0.0609
x2 = 0.062	0.081
x2 = 0.118	0.0966
x2 = 0.145	0.113
x2 = 0.17	0.117
x2 = 0.218	0.125
x2 = 0.249	0.129
x2 = 0.803	0.113
x2 = 0.828	0.107
x2 = 0.851	0.0978
x2 = 0.872	0.0877
x2 = 0.903	0.0727
x2 = 0.928	0.0593
x2 = 0.959	0.0347

CCCCCCCCO [octan-1-ol] + CCCCCC
Conditions	excess molar enthalpy [kcal/mol]
x1 = 0.033	0.0741
x1 = 0.05	0.086
x1 = 0.101	0.102
x1 = 0.153	0.111
x1 = 0.206	0.117
x1 = 0.3	0.122
x1 = 0.397	0.12
x1 = 0.447	0.115
x1 = 0.503	0.109
x1 = 0.602	0.0949
x1 = 0.653	0.0822
x1 = 0.696	0.0715
x1 = 0.749	0.059
x1 = 0.789	0.0483
x1 = 0.858	0.0313
x1 = 0.904	0.0163
x1 = 0.928	0.0148
x1 = 0.952	0.00526
